{"source": "patent US20140243302A1", "about": "“BRIDGED BICYCLIC COMPOUNDS FOR THE TREATMENT OF BACTERIAL INFECTIONS” (priority 2011, published 2014)", "assay_type_in_all_cases": "cell-based", "key": {"[1]": {"system": "Streptococcus pneumoniae IID554", "assay": "MIC assay, modified agar dilution (CLSI), S. pneumoniae IID554", "conditions": "for Strep_Pn_IID554_WT_MIC: agar dilution, MHA with 5% defibrinated horse blood; for susceptibility of S. pneumoniae IID554 based on MIC interpretive standards defined by CLSI: reference antibiotics", "protocol": "(§1) The potency of antibacterial agents was measured using the Minimal Inhibitory Concentration (MIC) assay. The assay measures the ability of test agents to inhibit the growth of bacteria on agar-containing medium.\n(§2) The bacterial test strains used were exemplified by Staphylococcus aureus Smith, Enterococcus faecium A2373, Streptococcus pneumoniae IID554, and Escherichia coli ATCC 25922. All strains were maintained as frozen stocks held at −80° C. in skim milk. Other bacterial test strains are well known to those skilled in the art and can be used for testing.\n(§3) Mueller Hinton Agar (MHA BBL; Becton Dickinson and Company, Sparks, Md.) was used as the medium. MHA was supplemented with 5% defibrinated horse blood (DHB; Nippon Biotest Laboratories inc.) to support the growth of S. pneumoniae and E. faecium.\n(§4) MIC values were determined using a modified agar dilution procedure described by the Clinical and Laboratory Standards Institute (CLSI; Methods for Dilution Antimicrobial Susceptibility Tests for Bacteria That Grow Aerobically; Approved Standard—Eighth Edition. CLSI document M07-A8 [ISBN 1-56238-689-1]. Clinical and Laboratory Standards Institute, 940 West Valley Road, Suite 1400, Wayne, Pa. 19087-1898 USA, 2009).\n(§5) Stock solutions (6.4 mgmL) of test compounds were prepared in 100% ultrapure dimethyl sulfoxide (DMSO; source) on the day of the assay. Subsequent serial dilutions were performed to generate solutions with concentrations ranging from 6.4 to 0.0002 mgmL in 100% DMSO.\nAgar medium containing test compound was prepared by adding the dilutions of antimicrobial solution to molten MHA at a temperature of 45-50° C. The agar and antimicrobial solution were mixed thoroughly, poured into petri dishes, and allowed to solidify at room temperature. The final concentration of test compounds in the MHA medium ranged from 128 to 0.001 μg/mL with two-fold dilutions. MHA plates lacking antibacterial compound were used for growth controls.\nPrior to susceptibility testing, the bacterial isolates were removed from frozen storage, thawed at room temperature, sub-cultured to MHA medium and incubated overnight at 35° C. S. pneumoniae and E. faecium were subcultured on MHA supplemented with 5% DHB at 35° C. with […]. Colonies from each plate were suspended in normal saline. This suspension was adjusted to the turbidity of a 0.5 McFarland standard, 1-2×10^8 colony forming units (CFU) per mL, and diluted 100-fold to 1-2×10^6 CFUmL.\nSuspensions of bacterial cultures were applied to the surface of MHA plates containing test compound as well as to a growth control plate lacking test compound using an inoculum-replicating device with 4 mm pins. The replicating device applied 5 uL of the bacterial suspension such that each spot contained approx. 1×10^4 CFU. […]"}, "[2]": {"system": "Pseudomonas aeruginosa PAO1", "assay": "MIC assay, modified agar dilution (CLSI), P. aeruginosa PAO1", "protocol": "as §1, §3, §4, §5\n(§6) Agar medium containing test compound was prepared by adding the dilutions of antimicrobial solution to molten MHA at a temperature of 45-50° C. […]"}, "[3]": {"system": "Staphylococcus aureus Smith", "assay": "MIC assay, modified agar dilution (CLSI), S. aureus Smith", "conditions": "for MIC: Staphylococcus aureus, agar dilution, 35° C., 16-20 hr, lowest concentration that completely inhibited growth, read-out: S_aureus_Smith_WT_MIC; for susceptibility of S. aureus Smith based on MIC interpretive standards defined by CLSI: reference antibiotics", "how_it_was_run": "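Agar dilution per CLSI on Mueller Hinton agar (plus 5% horse blood for S. pneumoniae and E. faecium), compound 128 to 0.001 μg/mL in two-fold steps. Spots of ~1×10^4 CFU incubated at 35 °C for 16-20 hr before MIC scoring.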"}, "[4]": {"system": "Escherichia coli ATCC 25922", "assay": "MIC assay, modified agar dilution (CLSI), E. coli ATCC 25922", "protocol": "as §1, §2, §3, §4\n(§7) Stock solutions (6.4 mgmL) of test compounds were prepared in 100% ultrapure dimethyl sulfoxide (DMSO; source) on the day of the assay. […]"}, "A_bau_IID876": {"system": "A_bau_IID876", "assay": "MIC assay, modified agar dilution (CLSI), A_bau_IID876", "protocol": "as §1, §3, §4, §5, §6"}, "[5]": {"system": "Enterococcus faecium A2373", "assay": "MIC assay, modified agar dilution (CLSI), E. faecium A2373", "conditions": "reference antibiotics", "protocol": "as §1, §2, §3, §4, §7"}}, "data": [{"smiles": "COc1ccc2ncc(F)c(CC(O)C34CCC(NCc5ccc6c(n5)NC(=O)CO6)(CC3)CO4)c2n1.Cl", "note": "(single isomer, unassigned) [Example 20a, 6-((1-(2-(3-Fluoro-6-methoxy-1,5-naphthyridin-4-yl)-1-hydroxyethyl)-2-oxabicyclo[2.2.2]octan-4-ylamino)methyl)-2H-pyrido[3,2-b][1,4]oxazin-3(4H)-one Hydrochloride]", "values": [{"measurement": "Strep_Pn_IID554_WT_MIC", "setting": "[1]", "value": 0.250, "unit": "µg/mL"}, {"measurement": "P_ae_PAO1_WT_MIC", "setting": "[2]", "value": 16.0, "unit": "µg/mL"}, {"measurement": "MIC", "setting": "[3]", "value": 0.063, "unit": "µg/mL"}, {"measurement": "E_coli_ATCC25922_WT_MIC", "setting": "[4]", "value": 4.00, "unit": "µg/mL"}, {"measurement": "A_bau_IID876_WT_MIC", "setting": "A_bau_IID876", "value": 1.00, "unit": "µg/mL"}]}, {"smiles": "COc1ccc2ncc(F)c(CCC34CCC(NCc5ccc6c(n5)NC(=O)CO6)(CC3)CO4)c2n1.Cl", "note": "[Example 18, 6-((1-(2-(3-Fluoro-6-methoxy-1,5-naphthyridin-4-yl)ethyl)-2-oxabicyclo[2.2.2]octan-4-ylamino)methyl)-2H-pyrido[3,2-b][1,4]oxazin-3(4H)-one Hydrochloride]", "values": [{"measurement": "Strep_Pn_IID554_WT_MIC", "setting": "[1]", "value": 0.0630, "unit": "µg/mL"}, {"measurement": "P_ae_PAO1_WT_MIC", "setting": "[2]", "value": 4.00, "unit": "µg/mL"}, {"measurement": "MIC", "setting": "[3]", "value": 0.016, "unit": "µg/mL"}, {"measurement": "E_coli_ATCC25922_WT_MIC", "setting": "[4]", "value": 1.00, "unit": "µg/mL"}, {"measurement": "A_bau_IID876_WT_MIC", "setting": "A_bau_IID876", "value": 0.500, "unit": "µg/mL"}]}, {"smiles": "CN[C@H](CC(C)C)C(=O)N[C@H]1C(=O)N[C@@H](CC(N)=O)C(=O)N[C@H]2C(=O)N[C@H]3C(=O)N[C@H](C(=O)N[C@H](C(=O)O)c4cc(O)cc(O)c4-c4cc3ccc4O)[C@H](O)c3ccc(c(Cl)c3)Oc3cc2cc(c3O[C@@H]2O[C@H](CO)[C@@H](O)[C@H](O)[C@H]2O[C@H]2C[C@](C)(N)[C@H](O)[C@H](C)O2)Oc2ccc(cc2Cl)[C@H]1O", "note": "[vancomycin, reference compound]", "values": [{"measurement": "susceptibility of E. faecium A2373", "setting": "[5]", "value": "resistant"}, {"measurement": "susceptibility of S. pneumoniae IID554 based on MIC interpretive standards defined by CLSI", "setting": "[1]", "value": "susceptible"}, {"measurement": "susceptibility of S. aureus Smith based on MIC interpretive standards defined by CLSI", "setting": "[3]", "value": "susceptible"}]}, {"smiles": "CC(=O)NC[C@H]1CN(c2ccc(N3CCOCC3)c(F)c2)C(=O)O1", "note": "[linezolid, reference compound]", "values": [{"measurement": "susceptibility of E. faecium A2373", "setting": "[5]", "value": "susceptible"}, {"measurement": "susceptibility of S. pneumoniae IID554 based on MIC interpretive standards defined by CLSI", "setting": "[1]", "value": "susceptible"}, {"measurement": "susceptibility of S. aureus Smith based on MIC interpretive standards defined by CLSI", "setting": "[3]", "value": "susceptible"}]}]}
